Consider six molecules from ChEMBL document CHEMBL1201862, “PubChem BioAssay data set” (2004).

One test addresses Paired box protein Pax-8 (Homo sapiens, UniProt Q06710). Put plainly: inhibitors of PAX8-driven TPO luciferase reporter, dose response, RMG-I cells, cherry-pick (AID 687027).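 Also: luciferase reporter driven by Pax8 target thyroperoxidase promoter measured by SteadyGlo luminescence.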 Type of test: functional, cell-based. For orientation: In a reporter assay the amount or activity of a reporter protein is the signal.
Test [1] is described as follows: IOSE-T80 ovarian epithelial cell cytotoxicity, dose response, cytotoxicity control for PAX8 inhibitor project, plate reader, dry powder samples (AID 743045). The class given is functional, cell-based.
Test [2] is described as follows: A2780 ovarian cancer cell cytotoxicity, dose response, cytotoxicity control, plate reader, dry powder samples (AID 743046). The class given is functional, cell-based.
Test [3] in a line: NIH:OVCAR-3 ovarian cancer cell cytotoxicity, dose response, PAX8 inhibitor project, plate reader, dry powder samples (AID 743044). The class given is functional, cell-based.
Test [4] is described as follows: A549 cell cytotoxicity, dose response, cytotoxicity control, plate reader, cherry-pick, antagonist series (AID 743412). The class given is functional, cell-based.
Test [5] can be described thus: HepG2 cell cytotoxicity, dose response, cytotoxicity control, plate reader, cherry-pick, antagonist series (AID 743416). The class given is functional, cell-based.
Test [6] in a line: IGROV1 ovarian cancer cell cytotoxicity, dose response, PAX8 inhibitor project, plate reader, dry powder samples (AID 743043). Type of test: functional, cell-based. Conditions: IGROV-1.
A short description of test [7]: LGR2 antagonists, dose response, cell-based, HEK293, CRE-luciferase reporter, cherry pick, set 2 (AID 743343).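 Also: transfected cells were stimulated with diluted bursicon conditioned medium after compound addition.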 Type of test: functional.
Test [8] is described as follows: MC4R antagonists, dose response, counter-screen for LGR2 antagonist project, cell-based, plate reader, cherry pick (AID 743444).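 Also: transfected HEK 293 cells stimulated with alpha-MSH peptide; potency of inhibitors of the alpha-MSH evoked signal.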 Type of test: functional. Background: The purpose of a counterscreen is to sort out artefacts and off-target activity.
Test [9] is described as follows: cytotoxicity in OVCAR8 ovarian cancer cells, dose response, PAX8 project, cell-based, plate reader, dry powder samples (AID 743197). Conditions: OVCAR-8. The class given is functional.
A short description of test [10]: HEK293 cell cytotoxicity, dose response, cytotoxicity control, plate reader, cherry-picked samples (AID 743446). Type of test: functional, cell-based.
Test [11] in a line: P. falciparum 3D7-ScDHODH growth inhibitors, dose response, SYBR Green, dry powder samples (AID 1159570).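 Also: parasite growth measured after 72 hours of compound exposure.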 The class given is functional, cell-based.
Test [12] is described as follows: HepG2 cell cytotoxicity, dose response, cytotoxicity control, plate reader, dry powder samples (AID 1159569).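 Also: inhibitor potency with signal falling toward the positive control level.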 The class given is functional, cell-based.
Test [13] in a line: P. falciparum Dd2 growth inhibitors, dose response, SYBR Green, cherry-picked samples (AID 1159567). Type of test: functional, cell-based.
A short description of test [14]: P. falciparum Dd2 growth inhibitors, dose response, SYBR Green, dry powder samples (AID 1159566).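 Also: potency for growth inhibition with lower SYBR green DNA signal.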 The class given is functional, cell-based.
A short description of test [15]: P. falciparum ATP4 D1247Y mutant growth inhibitors, dose response, NITD609-resistant line, SYBR Green, dry powder (AID 1159571).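 Also: parasites synchronized at ring stage by sorbitol before testing.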 Type of test: functional, cell-based.
Test [16] in a line: inhibitors of HIV Env-driven cell fusion, dose response, cherry-pick (AID 652057). The class given is functional, cell-based.
A short description of test [17]: ZM109 Env clade C HIV-1 fusion inhibitors, dose response, HeLa effector, CEM target cells, luciferase, cherry-pick (AID 652058). The class given is functional, cell-based.
Test [18] in a line: inhibitors of clade B AD8 Env fusion, dose response, cell-based, cherry-pick (AID 652062).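 Also: luciferase signal from cell-cell fusion driven by HIV-1 clade B AD8 Env; potency is for inhibitors of fusion seen as a drop in luminescence.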 The class given is functional.
The nature of test [19]: HIV Env cell-cell fusion inhibitors, dose response, HIV entry, plate reader, dry powder (AID 687023). Type of test: functional, cell-based.
Test [20] is described as follows: Late stage results for the probe development effort to identify inhibitors of Plasmodium falciparum gametocytes: Luminescence-based cell-based high throughput dose response assay to identify inhibitors of viability of late stage Plasmodium falciparum gametocytes. Type of test: functional.
Test [21] has as its target T1, Low molecular weight phosphotyrosine protein phosphatase (Homo sapiens, UniProt P24666).
T1 sequence (P24666 whole entry): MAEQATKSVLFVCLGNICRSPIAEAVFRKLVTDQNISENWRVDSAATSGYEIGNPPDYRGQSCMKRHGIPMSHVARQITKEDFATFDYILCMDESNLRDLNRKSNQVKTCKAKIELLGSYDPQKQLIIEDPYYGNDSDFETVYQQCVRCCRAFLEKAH
Briefly: LMPTP phosphatase inhibitors, dose response, biochemical, OMFP substrate, fluorescence intensity, set 2 (AID 743307). The class given is functional.

The target in test [22] is T1, Low molecular weight phosphotyrosine protein phosphatase. Put plainly: LMPTP phosphatase inhibitors, colorimetric pNPP readout, dose response, orthogonal assay, biochemical, absorbance, pNPP substrate, LMPTP-A isoform, set 2 (AID 743308). The class given is functional.
Test [23] deals with G-protein coupled receptor 183 (Homo sapiens, UniProt P32249). Briefly: SAR confirmation of small molecule antagonists of the EBI2 receptor via a luminescent beta-arrestin assa. The class given is functional.
The nature of test [24]: Dose-response inhibition of insulin secretion in a rat insulinoma line at 5 mM glucose (AID 1117331). Type of test: functional, cell-based. Conditions: INS-1E.
A short description of the next test: cells. The class given is functional, cell-based. Conditions: INS-1E.

Structures can show the parent of a compound that is named as a salt. The source made the active and inactive calls.

Chain of Paired box protein Pax-8 (Q06710 whole entry): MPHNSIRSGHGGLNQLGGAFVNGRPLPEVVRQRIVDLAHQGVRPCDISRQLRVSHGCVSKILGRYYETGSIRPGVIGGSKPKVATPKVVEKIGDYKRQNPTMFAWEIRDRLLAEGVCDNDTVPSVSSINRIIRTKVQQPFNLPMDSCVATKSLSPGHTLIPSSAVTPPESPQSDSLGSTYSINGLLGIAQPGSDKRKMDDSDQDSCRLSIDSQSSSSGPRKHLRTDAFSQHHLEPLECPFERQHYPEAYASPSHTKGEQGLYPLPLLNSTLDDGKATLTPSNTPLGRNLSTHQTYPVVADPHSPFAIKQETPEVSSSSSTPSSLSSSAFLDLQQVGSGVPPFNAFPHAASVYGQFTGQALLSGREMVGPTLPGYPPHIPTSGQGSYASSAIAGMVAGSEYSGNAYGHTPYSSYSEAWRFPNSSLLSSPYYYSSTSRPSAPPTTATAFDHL
Chain of G-protein coupled receptor 183 (P32249 whole entry): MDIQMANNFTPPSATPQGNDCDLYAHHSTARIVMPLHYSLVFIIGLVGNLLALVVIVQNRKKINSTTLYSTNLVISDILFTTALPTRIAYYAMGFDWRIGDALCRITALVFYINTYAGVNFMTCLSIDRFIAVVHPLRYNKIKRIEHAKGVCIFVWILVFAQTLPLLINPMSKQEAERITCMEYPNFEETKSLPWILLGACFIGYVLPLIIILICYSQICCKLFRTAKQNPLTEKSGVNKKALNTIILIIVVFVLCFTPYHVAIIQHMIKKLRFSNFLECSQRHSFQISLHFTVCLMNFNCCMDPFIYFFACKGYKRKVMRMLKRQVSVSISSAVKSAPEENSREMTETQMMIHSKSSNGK

What is called AC50 is the midpoint of the concentration-response curve, whichever way the signal moves. For `N#Cc1cccc(-c2ccc([C@@H]3[C@@H]4CN(C(=O)C5CC5)C[C@H]3N4)cc2)c1`, the concentration at half-maximal activity (AC50) at Paired box protein Pax-8 was 1.25 µM (active); in [1], 68.8 µM (active); in [2] it was 9.05 µM (active); in test [3] it was 12.2 µM (active); in test [4] it was 1.97 µM (active); in [5], 5.88 µM (active). The AC50 in test [6] was 7.63 µM (active); in test [7], 2.62 µM (active); in test [8] it was 2.49 µM (active); in test [9], 4.43 µM (active); in [10], 13.1 µM (active); in test [11] it was 0.405 µM (active). The AC50 was 2.84 µM (active) in [12], 0.489 µM (active) in test [13], 0.267 µM (active) in test [14] and 0.455 µM (active) in test [15].

Take `Cc1noc(C)c1S(=O)(=O)N(C)C[C@@H]1Oc2ccc(NC(=O)Nc3ccccc3)cc2CC(=O)N([C@@H](C)CO)C[C@@H]1C`: the AC50 in [16] is 19.7 µM (active); in [17], 15.2 µM (active); in [18], 36.9 µM (active); in test [19], 14.2 µM (active).

For orientation: IC50 means the concentration needed to halve the response being measured. As to `O=C(Nc1nccs1)c1cn(-c2ccccc2)nc1-c1ccc(Cl)cc1`, in test [20], the IC50 is > 37.2 µM (inactive).

On to `CN(C)CCNc1cc(-c2ccccc2)nc2ccccc12`, for which the IC50 is 5.72 µM (active) in test [21] and 12 µM (active) in test [22].

Consider `O=C(/C=C/c1ccc(Br)cc1)N1CCN(Cc2ccc(Cl)cc2C(F)(F)F)CC1`, for which the IC50 in test [23] was 0.00523 µM (active).

With `CN(C)CC[C@@H](c1ccc(Br)cc1)c1ccccn1` [DEXBROMPHENIRAMINE MALEATE], the figures for the IC50 (in [24]; in “cells”) were 3.76 µM (active) and 6.37 µM (inactive), respectively.
